pIC50: −log10 of the molar value.

Data set [1] in a line: Thermogravimetric analysis (TGA). The format is physicochemical. Conditions: TGA at 174.03 °C; ramp 10.00 °C/min to 300.00 °C. The protocol: Unless otherwise noted, TGA thermograms were acquired using a TA Instruments Q500 Thermogravimetric Analyzer (New Castle, Del., USA). Samples were weighed out into the pan. Except as noted below, the temperature was ramped from 25.00° C. to 400.00° C. at 10.00° C./minute.
A TGA thermogram for tosylate salt prepared using the steps described in Variation 2 was acquired using a Mettler Toledo Thermogravimetric Analyzer/Differential Scanning Calorimeter 1. The temperature was ramped from 25° C. to 400° C. at 10° C./minute.

The nature of data set [2]: Thermogravimetric analysis (TGA). Conditions: ramp 10.00 °C/min to 300.00 °C. The format is physicochemical.
Data set [3] relates to Mantle cell lymphoma cell line Granta-519. Nature of the data set: Single-agent cytotoxicity assay, CellTiter Glo cell survival. The format is cell-based. Conditions: Homo sapiens, Granta-519, 96 h, 4-day assay. The protocol: (§1) Mantle cell lymphoma cell line Granta-519 was cultured in Dulbecco's MEM (4.5 g/L glucose) containing 10% FBS, 2 mM L-glutamine, 100 U/mL Penicillin and 100 μg/mL Streptomycin. Mantle cell lymphoma cell line Jeko-1 was cultured in RPMI1640 containing 10% FBS, 100 U/mL Penicillin and 100 μg/mL Streptomycin. Mantle cell lymphoma cell line Z138 was cultured in IMDM containing 10% horse serum, 100 U/mL Penicillin and 100 μg/mL Streptomycin. All cell lines were maintained in 37° C. incubator with 5% CO2 till ready for assay. Granta-519, Jeko-1 and Z138 cells were seeded at either 1000 or 5000 cells/well in 96-well plates. Cells were incubated for overnight at 37° C. before treated with their corresponding growth media containing free base in 0.1% DMSO at various concentrations ranging from 1000 nM to 0.32 nM. 0.1% DMSO was used as mock treatment or control. After 4 days incubation, cell survival was measured by CellTiter Glo (Promega) and cell survival fraction was calculated relative to control. GraphPad Prism5 software was used to plot data and calculate IC50 values.
For orientation: In ATP-based viability assays light output follows the ATP content of the culture.

Data set [4] relates to Mantle cell lymphoma cell line Jeko-1. The description is as above. The class given is cell-based. Conditions: Homo sapiens, JeKo-1, 96 h, 4-day assay. How it is done: as §1
Data set [5] deals with Mantle cell lymphoma cell line Z138. The description is as above. The class given is cell-based. Conditions: Homo sapiens, Z-138, 96 h, 4-day assay. The protocol: as §1
The test system of data set [6] is Basaloid squamous cell line PE/CA-PJ34 (clone 12). Nature of the data set: Single-agent cytotoxicity assay in head & neck tumor cell lines. The class given is cell-based. The protocol:
(§2) Oral squamaous carcinoma HSC-3 and HSC-4 cells were cultured in MEM+10% FBS. Oral squamaous carcinoma CAL 27 was cultured in DMEM+10% FBS. Basaloid squamous cell line PE/CA-PJ34 (clone 12) was cultured in IMDM+10% FBS. All cell lines were maintained in their corresponding growth media containing 100 U/mL Penicillin and 100 μg/mL Streptomycin in 37° C. incubator with 5% CO2 till ready for assay. According to individual cell line growth rate, cells were seeded at different densities as indicated in each graph in 96-well plates in the time of assay. Cells were incubated for overnight at 37° C. before treated with their corresponding growth media containing free base in 0.1% DMSO at various concentrations ranging from 5000 nM to 0.064 nM. 0.1% DMSO was used as mock treatment or control. Media and compound were replenished every 5 days. After incubation for 7, 10, 11 or 13 days (as indicated in each graph), cell survival was measured by CellTiter Glo (Promega) and cell survival fraction was calculated relative to control. GraphPad Prism5 software was used to plot data and calculate IC50 values.

Data set [7] has as its system Oral squamaous carcinoma CAL 27. The data set is described as above. The class given is cell-based. Conditions: Homo sapiens. The protocol:
as §2

Data set [8] relates to Oral squamaous carcinoma HSC-3 cells. The data set is described as above. The class given is cell-based. Conditions: Homo sapiens. The protocol:
as §2

The subject of data set [9] is Oral squamaous carcinoma HSC-4 cells. Described as above. The class given is cell-based. Conditions: Homo sapiens. The protocol: as §2

As to `Cn1ncnc1[C@H]1c2n[nH]c(=O)c3cc(F)cc(c23)N[C@@H]1c1ccc(F)cc1` [compound 20, (8S,9R)-5-fluoro-8-(4-fluorophenyl)-9-(1-methyl-1H-1,2,4-triazol-5-yl)-8,9-dihydro-2H-pyrido[4,3,2-de]phthalazin-3(7H)-one], the “Weight Change” value in data set [1] came out at 3.167%; in data set [2] (TGA at 120 °C) it was 1.926%; in data set [2] (TGA at 189.67 °C), 3.234%; in data set [2] (TGA at 256.48 °C), 3.448%.

The pIC50 is the IC50 on a negative log10 scale, so that one unit is a factor of ten. A low value points to a large IC50. As for `Cn1ncnc1[C@H]1c2n[nH]c(=O)c3cc(F)cc(c23)N[C@@H]1c1ccc(F)cc1` [free base, (8S,9R)-5-fluoro-8-(4-fluorophenyl)-9-(1-methyl-1H-1,2,4-triazol-5-yl)-8,9-dihydro-2H-pyrido[4,3,2-de]phthalazin-3(7H)-one], the pIC50 is 8.77 in data set [3] (Granta-519, 1000/well); 8.05 in data set [3] (Granta-519, 5000/well); 7.19 in [4] (Jeko-1, 1000/well); 6.45 in data set [4] (Jeko-1, 5000/well); 7.98 in data set [5] (Z-138, 1000/well); 7.23 in [5] (Z-138, 5000/well). Further, the pIC50 was 7.87 in data set [6] (240 h, PE/CA-PJ34 C12, 10 days, 2000/well); 7.74 in [6] (312 h, PE/CA-PJ34 C12, 13 days, 1000/well); 7.64 in data set [7] (CAL-27, 168 h, CAL27, 7 days, 800/well); 7.82 in data set [7] (CAL-27, 264 h, CAL27, 11 days, 400/well); 6.01 in data set [8] (168 h, HSC-3, 7 days, 1500/well); 6.03 in data set [8] (264 h, HSC-3, 11 days, 750/well). The pIC50 is 7.24 in data set [9] (168 h, HSC-4, 7 days, 100/well) and 7.31 in data set [9] (264 h, HSC-4, 11 days, 200/well).

The values are drawn from patent publication US10189837B2, “Crystalline (8S,9R)-5-fluoro-8-(4-fluorophenyl)-9-(1-methyl-1H-1,2,4-triazol-5-yl)-8,9-dihydro-2H-pyrido[4,3,2-de]phthalazin-3(7H)-one tosylate salt” (Medivation Technologies, LLC, priority 2010, dated 2019).
